Here are results for 15 compounds from PubChem BioAssay AID2060908 (Molecular Pharmacology Branch, DTP, NCI, 2025).

The assay concerns 186277-243-T-J2-PDC complex spheroids, viability. Put plainly: Anticancer human tumor 186277-243-T-J2-PDC patient-derived colon adenocarcinoma cell line growth inhibition [RAS]. The conditions noted are these: for viability, T/C: stronger effect = lower value. The source says:
RAS pathway inhibitors in Combinations in Complex Spheroids
A high-throughput screen of multi-cell type tumor spheroids was designed to identify active combinations of RAS pathway inhibitors and targeted small molecules. Complex spheroids include a stromal component modeled by human endothelial cells (HUVEC) and fibroblasts modeled by human mesenchymal stem cells (MSCs). The concentration ranges selected for each drug and investigational agent were based upon clinically achievable concentrations if the clinical Cmax of the agent was known.
Compounds. The drugs and investigational agents: abemaciclib (NSC768073), cobimetinib (NSC768068), divarasib (GDC6063, NSC841802), docetaxel (NSC628503), GDC-1971 (RLY-1971, NSC841576), gemcitabine (NSC613327), inavolisib (NSC800729), ipatasertib (NSC767898), KB-0742 (NSC834161), MRTX-1133 (NSC836407), osimertinib (NSC779217), RMC-4630 (NSC839698), RMC-6236 (NSC851965), RMC-6291 (NSC852671), Ro-3306 (NSC812927), sapanisertib (NSC764658), SN-38 (NSC673596), staurosporine (NSC755774), SY5609 (NSC837396), and tovorafenib (DAY101, NSC766906), were obtained from the National Cancer Institute (NCI) Developmental Therapeutics Program Chemical Repository. The FDA-approved anticancer drug set is available from the NCI Developmental Therapeutics Program. […] The stock solutions were prepared in dimethyl sulfoxide (DMSO, Sigma-Aldrich, St. Louis, MO, cat. D2650) at 800-fold the tested concentration and stored at -70 degrees C prior to their use. All drugs and investigational agents were tested over a range starting from a high concentration at or near the clinical Cmax and decreasing in half-log increments. If the clinical Cmax for an agent had not been determined, the highest concentration tested was 10 microM.
Cell Culture. All cells were maintained in an incubator at 37 degrees C and 5% CO2 with 95% humidity. The PDC lines were cultured according to standard operating procedures established by the NCI PDMR. All PDCs were thawed and cultured in Matrigel-coated flasks prepared with a working solution of 1X Ham's F-12 nutrient mix, without supplementation (Invitrogen, Waltham, MA, cat. 11765054), 100 U/mL penicillin-streptomycin (Invitrogen, cat. 15140122), and 2.5% Matrigel (Corning Inc., Corning, NY, cat. 354248) for the first three passages. The 362531-283-R-J2-PDC and 782815-120-R-J1-PDC lines were cultured in 6C/Colon 1B media, which includes advanced DMEM/F-12 (Thermo Fisher Scientific, cat. 12634028), 10 mM HEPES (Thermo Fisher Scientific, cat. 15630080), 1X GlutaMAX supplement (Thermo Fisher Scientific, cat. 35050061), 0.1 mg/mL primocin (InvivoGen, San Diego, CA, cat. ant-pm-2), 10% defined fetal bovine serum, heat inactivated (HyClone Laboratories Inc., Logan, UT, cat. SH30070.03HI), 50% L-WRN conditioned media (ATCC, cat. CRL-3276), 1.25 mM N-Acetyl-L-cysteine (Sigma-Aldrich, cat. A9165), 10 mM nicotinamide (Sigma-Aldrich, cat. N0636), 1X B-27 supplement (Thermo Fisher Scientific, cat. 17504044), 1X N-2 supplement (Thermo Fisher Scientific, cat. 17502048), 50 ng/mL human EGF (Thermo Fisher Scientific, cat. PHG0311), and 10 microM Y-27632 dihydrochloride (Tocris Bioscience, cat. 1254). The K12877-001-R-J1-PDC line was cultured in 6I media, which includes all 6C/Colon 1B media plus 10 ng/mL human FGF-10 (PeproTech, cat. 100-26), 1 ng/mL human FGF-2 (PeproTech, cat. 100-18B), 1 µM prostaglandin E2 (Tocris Bioscience, cat. 2296), […] hydrocortisone (Sigma-Aldrich, cat. H4001), and […] bovine insulin (Sigma-Aldrich, cat. I6634). The K86415-001-R-J1-PDC line was cultured in 6D media, which includes all 6C/Colon 1B media components minus the L-WRN conditioned media. The 485176-168-R4-J1-PDC was cultured in PANC media, which includes all 6C/Colon 1B media plus 100 ng/mL human FGF-10 (PeproTech, cat. 100-26), 500 nM SB-431542 (Selleckchem, cat. S1067), and 10 nM gastrin (Tocris Bioscience, cat. 3006). […]

Where [1] appears, read: compound alone, run of 06/10/2024.
Setting [2] is: compound alone, run of 05/20/2024.

“And” between values parts separate entries of the source, which are not always exact repeats. Identical values can stand only once.
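Also: spheroids exposed to compounds for 7 days before viability read.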

As for `C#Cc1c(F)ccc2cc(O)cc(-c3ncc4c(N5CC6CCC(C5)N6)nc(OCC56CCCN5CC(F)C6)nc4c3F)c12` (configuration not stated), the viability, T/C (commonly the ratio of treated to control) runs as follows: (compound 0.0316 µM) 70% [middle of 8 runs]; (compound 0.1 µM) 62.6% [middle of 8 runs]; (compound 0.316 µM) 32.4% [middle of 8 runs]; (compound 1 µM) 18.4% [middle of 8 runs]; (compound 3.16 µM) 12.2% [middle of 8 runs]; (compound 10 µM) 10.1% [middle of 8 runs]. In addition, the IC50 (usually the concentration that inhibits the measured activity by half) under setting [1] was 160 nM [middle of 8 runs].
Take `C=CC(=O)N1CCN(c2nc(OCC3CCCN3C)nc3c(F)c(-c4nc(N)cc(C)c4C(F)(F)F)c(Cl)cc23)C(C)C1` (configuration not stated): under “compound 0.0316 µM”, the viability, T/C was 100% [middle of 12 runs]. The IC50 by setting is: under setting [1], > 1000 nM; (curve of compound) > 1000 nM.
`C=CC(=O)Nc1cc(Nc2nccc(-c3cn(C)c4ccccc34)n2)c(OC)cc1N(C)CCN(C)C`: the viability, T/C reads like this: (compound 0.00316 µM) 91.2% [middle of 4 runs]; (compound 0.0316 µM) 93.3% [middle of 4 runs]; (compound 0.1 µM) 99.4% [middle of 4 runs]; (compound 0.316 µM) 94.8% [middle of 4 runs]. In addition, where the note is “curve of compound”, the IC50 is > 1000 nM.
For the compound `CC(C)NCC(C(=O)N1CCN(c2ncnc3c2C(C)CC3O)CC1)c1ccc(Cl)cc1` (configuration not stated), the viability, T/C was 86% [middle of 4 runs] (compound 0.0316 µM); 89.2% [middle of 4 runs] (compound 0.1 µM); 97.7% [middle of 4 runs] (compound 0.316 µM); 68.8% [middle of 4 runs] (compound 1 µM); 48% [middle of 4 runs] (compound 3.16 µM); 32.2% [middle of 4 runs] (compound 10 µM). Moreover, where the note is “curve of compound”, the IC50 is 2.59 µM [middle of 4 runs].
As for `CC(C)n1nc(-c2ccc3oc(N)nc3c2)c2c(N)ncnc21`, the viability, T/C reads like this: (compound 0.000316 µM) 107% [middle of 4 runs]; (compound 0.001 µM) 96.7% [middle of 4 runs]; (compound 0.00316 µM) 101% and 98% and 107% (2×); (compound 0.01 µM) 92.9% [middle of 4 runs]; (compound 0.1 µM) 47.7% [middle of 4 runs].
Consider `CC(Nc1ccc2c(c1)OCCn1cc(N3C(=O)OCC3C(F)F)nc1-2)C(N)=O` (configuration not stated), for which the viability, T/C (compound 0.0316 µM) is 102% (2×) and 76.1% and 98.5%; the viability, T/C (compound 0.1 µM) was 91.8% [middle of 4 runs]; the viability, T/C (compound 0.316 µM) is 69.5% [middle of 4 runs]; the viability, T/C (compound 1 µM) was 51.2% [middle of 4 runs]; the viability, T/C (compound 10 µM) is 34.3% [middle of 4 runs].
With `CC1(C)CCC(Nc2ncc(C(F)(F)F)c(-c3c[nH]c4c(P(C)(C)=O)c(C#N)ccc34)n2)CN1` (configuration not stated), the viability, T/C (compound 0.000949 µM) was 89.9% [middle of 4 runs]; the viability, T/C (compound 0.003 µM) was 102% and 101% (2×) and 97%; the viability, T/C (compound 0.00949 µM) was 99.2% [middle of 4 runs]; the viability, T/C (compound 0.0949 µM) is 60.8% and 56.4% (2×) and 71.4%; the viability, T/C (compound 0.3 µM) is 63.9% [middle of 4 runs]. Moreover, the IC50 (curve of compound) was > 300 nM and 287 nM and 197 nM.
Turning to `CC1(O)CCCC1n1c(=O)c(C(F)F)cc2cnc(NC3CCN(S(C)(=O)=O)CC3)nc21` (configuration not stated), the viability, T/C is 108% [middle of 4 runs] (compound 0.0316 µM), 114% [middle of 4 runs] (compound 0.1 µM), 83.6% [middle of 4 runs] (compound 3.16 µM) and 2.71% [middle of 4 runs] (compound 10 µM). Also, for the setting “curve of compound”, the IC50 is 4.81 µM [middle of 4 runs].
For the compound `CCN1CCN(Cc2ccc(Nc3ncc(F)c(-c4cc(F)c5nc(C)n(C(C)C)c5c4)n3)nc2)CC1`, the viability, T/C is 102% (3×) and 98.7% (compound 0.01 µM); 127% [middle of 4 runs] (compound 0.1 µM). In addition, the IC50 (curve of compound) was > 1000 nM.
As for `CCc1c2c(nc3ccc(O)cc13)-c1cc3c(c(=O)n1C2)COC(=O)[C@]3(O)CC`, the viability, T/C is 71.8% [middle of 4 runs] (compound 0.00949 µM), 47.5% [middle of 4 runs] (compound 0.03 µM), 18.6% [middle of 4 runs] (compound 0.0949 µM) and 15.9% [middle of 4 runs] (compound 0.3 µM).
Take `CCn1c(-c2cc(N3CCN(C)CC3)cnc2C(C)OC)c2c3cc(ccc31)-c1csc(n1)CC(NC(=O)C1CC1C)C(=O)N1CCCC(N1)C(=O)OCC(C)(C)C2` (configuration not stated): the viability, T/C runs as follows: (compound 0.000949 µM) 105% [middle of 8 runs]; (compound 0.00949 µM) 55.2% [middle of 8 runs]; (compound 0.03 µM) 15.2% [middle of 8 runs]; (compound 0.0949 µM) 7.7% [middle of 7 runs]; (compound 0.3 µM) 6.43% [middle of 8 runs]. Also, under setting [2], the IC50 is 10.4 nM [middle of 8 runs].
Regarding `CCn1c(-c2cccnc2C(C)OC)c2c3cc(ccc31)N1CCOC(CC(NC(=O)C(C(C)C)N(C)C(=O)C3(F)CCN(C(=O)C#CC(C)(C)N(C)C)CC3)C(=O)N3CCCC(N3)C(=O)OCC(C)(C)C2)C1` (configuration not stated), the viability, T/C by setting is: (compound 0.000949 µM) 96.7% [middle of 8 runs]; (compound 0.003 µM) 96.3% [middle of 8 runs]; (compound 0.03 µM) 102% [middle of 8 runs]; (compound 0.3 µM) 103% [middle of 8 runs]. Moreover, the IC50 under setting [2] is > 300 nM.
`C[C@@H](NC(=O)c1ncnc(N)c1Cl)c1ncc(C(=O)Nc2cc(C(F)(F)F)c(Cl)cn2)s1`: the viability, T/C by setting is: (compound 0.0316 µM) 99.8% [middle of 4 runs]; (compound 0.1 µM) 93.7% [middle of 4 runs]; (compound 0.316 µM) 102% [middle of 4 runs]; (compound 1 µM) 91.9% [middle of 4 runs]; (compound 3.16 µM) 104% [middle of 4 runs]; (compound 10 µM) 79.8% [middle of 4 runs]. Also, the IC50 (curve of compound) is > 10000 nM.
As to `Nc1ccn(C2OC(CO)C(O)C2(F)F)c(=O)n1` (configuration not stated), the viability, T/C (compound 0.00316 µM) is 57.2% [middle of 4 runs]; the viability, T/C (compound 0.01 µM) is 12.7% [middle of 4 runs]; the viability, T/C (compound 0.0316 µM) is 12% [middle of 4 runs]; the viability, T/C (compound 0.1 µM) was 12.9% [middle of 4 runs]; the viability, T/C (compound 0.316 µM) is 10.6% [middle of 4 runs]; the viability, T/C (compound 1 µM) is 12.1% [middle of 4 runs]. Besides, the IC50 (curve of compound) was 3.81 nM [middle of 4 runs].
As to `O=C(c1ccc(F)c(F)c1Nc1ccc(I)cc1F)N1CC(O)([C@@H]2CCCCN2)C1`, the viability, T/C is, setting by setting: (compound 0.00316 µM) 102% [middle of 4 runs]; (compound 0.01 µM) 93.3% [middle of 4 runs]; (compound 0.0316 µM) 94.1% [middle of 4 runs]; (compound 0.1 µM) 39.6% [middle of 4 runs]; (compound 0.316 µM) 9.71% [middle of 4 runs]; (compound 1 µM) 5.17% [middle of 4 runs]. Further, the IC50 (curve of compound) was 79.7 nM [middle of 4 runs].
